Assay results reported in patent publication US10112929B2, “Lactams as inhibitors of rock” (BRISTOL-MYERS SQUIBB COMPANY, priority 2015, dated 2018).

What follows are compounds tested against ROCK2 (Homo sapiens (Human), UniProt O75116) (assay: biochemical).
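Note: rho kinase enzyme reaction halted with EDTA, phospho- and non-phospho peptide separated for read-out, kinase activity inhibition derived across a dose-response series, DMSO under 2%.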

Sequence of ROCK2 (O75116 whole entry, species assumed): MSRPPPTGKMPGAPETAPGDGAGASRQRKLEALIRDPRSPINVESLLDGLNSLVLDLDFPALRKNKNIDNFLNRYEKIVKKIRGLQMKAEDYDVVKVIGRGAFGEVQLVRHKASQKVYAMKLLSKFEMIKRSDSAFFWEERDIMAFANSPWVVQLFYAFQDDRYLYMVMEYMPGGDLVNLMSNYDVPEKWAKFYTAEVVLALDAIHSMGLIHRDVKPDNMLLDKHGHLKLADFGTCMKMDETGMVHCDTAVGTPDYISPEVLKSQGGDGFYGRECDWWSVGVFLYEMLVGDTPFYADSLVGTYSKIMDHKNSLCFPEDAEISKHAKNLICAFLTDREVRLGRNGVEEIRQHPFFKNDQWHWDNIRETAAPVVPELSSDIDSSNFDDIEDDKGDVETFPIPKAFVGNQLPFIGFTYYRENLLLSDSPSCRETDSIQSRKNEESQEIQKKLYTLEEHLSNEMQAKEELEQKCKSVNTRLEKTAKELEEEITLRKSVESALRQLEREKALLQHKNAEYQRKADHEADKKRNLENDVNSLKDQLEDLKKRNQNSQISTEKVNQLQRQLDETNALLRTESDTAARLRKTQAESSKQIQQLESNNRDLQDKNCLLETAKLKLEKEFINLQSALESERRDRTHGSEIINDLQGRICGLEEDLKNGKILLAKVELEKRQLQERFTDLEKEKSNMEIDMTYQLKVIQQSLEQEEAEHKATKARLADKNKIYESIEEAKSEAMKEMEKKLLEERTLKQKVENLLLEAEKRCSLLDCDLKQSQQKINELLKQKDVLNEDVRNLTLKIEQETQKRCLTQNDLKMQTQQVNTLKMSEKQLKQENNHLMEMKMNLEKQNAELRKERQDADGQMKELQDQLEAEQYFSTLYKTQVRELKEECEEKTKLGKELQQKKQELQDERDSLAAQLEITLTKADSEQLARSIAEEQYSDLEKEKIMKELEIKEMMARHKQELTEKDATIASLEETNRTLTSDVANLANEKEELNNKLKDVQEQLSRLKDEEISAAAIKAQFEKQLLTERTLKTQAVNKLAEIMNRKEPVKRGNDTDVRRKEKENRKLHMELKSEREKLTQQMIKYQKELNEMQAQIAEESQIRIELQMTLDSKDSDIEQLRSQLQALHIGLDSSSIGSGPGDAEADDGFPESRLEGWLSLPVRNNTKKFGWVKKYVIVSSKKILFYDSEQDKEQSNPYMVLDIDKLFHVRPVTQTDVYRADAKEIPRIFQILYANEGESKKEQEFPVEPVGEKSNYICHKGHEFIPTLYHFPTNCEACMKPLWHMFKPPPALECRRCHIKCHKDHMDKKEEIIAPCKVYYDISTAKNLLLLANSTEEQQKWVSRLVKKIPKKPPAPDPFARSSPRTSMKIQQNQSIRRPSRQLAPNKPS

IC50 [nM] | Structure (SMILES)
100 to 2200 | COc1nc(N2CCC(Nc3ccc4c(c3)CS(=O)(=O)C4)C2=O)ccc1-c1cn[nH]c1 (racemic) [Example 263, 3-((2,2-dioxido-l,3-dihydrobenzo[c]thiophen-5-yl)amino)-1-(6-methoxy-5-(1H-pyrazol-4-yl)pyridin-2-yl)pyrrolidin-2-one]
100 to 2200 | O=C1C(Nc2nc3ccccc3[nH]2)CCN1c1ccc(-c2cn[nH]c2)cc1 (single isomer, unassigned) [Example 55, 3-((1H-benzo[d]imidazol-2-yl)amino)-1-(4-(1H-pyrazol-4-yl)phenyl)pyrrolidin-2-one]
100 to 2200 | COc1cc(F)cc(NC2CCN(c3ccc(-c4cn[nH]c4)c(C(F)F)c3)C2=O)c1 (single isomer, unassigned) [Example 177, 1-(3-(difluoromethyl)-4-(1H-pyrazol-4-yl)phenyl)-3-((3-fluoro-5-methoxyphenyl)amino)pyrrolidin-2-one]
10 to 100 | CC(=O)Nc1cccc(NC2CCN(c3ccc(-c4cn[nH]c4)cc3)C2=O)c1 (centres unmarked) [Example 391, N-(3-((1-(4-(1H-pyrazol-4-yl)phenyl)-2-oxopyrrolidin-3-yl)amino)phenyl)acetamide]
10 to 100 | COCc1cc(N2CCC(Nc3cc(F)cc(OC)c3)C2=O)ccc1-c1cn[nH]c1 (single isomer, unassigned) [Example 186, 3-((3-fluoro-5-methoxyphenyl)amino)-1-(3-(methoxymethyl)-4-(1H-pyrazol-4-yl)phenyl)pyrrolidin-2-one]
100 to 2200 | O=C1[C@H](Nc2ccc3c(c2)CS(=O)(=O)C3)CCN1c1ccc(-c2cn[nH]c2)cc1 [Example 392, (R)-1-(4-(1H-pyrazol-4-yl)phenyl)-3-((2,2-dioxido-1,3-dihydrobenzo[c]thiophen-5-yl)amino)pyrrolidin-2-one]
100 to 2200 | COc1nc(N2CCC(N3CC(C)OC(C)C3)C2=O)ccc1-c1cn[nH]c1 (racemic) [Example 275, 3-(2,6-dimethylmorpholino)-1-(6-methoxy-5-(1H-pyrazol-4-yl)pyridin-2-yl)pyrrolidin-2-one]
< 10 | COc1nc(N2CCC(N3CCOc4ccccc43)C2=O)ccc1-c1cn[nH]c1 (single isomer, unassigned) [Example 230, 3-(2H-benzo[b][1,4]oxazin-4(3H)-yl)-1-(6-methoxy-5-(1H-pyrazol-4-yl)pyridin-2-yl)pyrrolidin-2-one]
10 to 100 | COc1nc(N2CCC(Nc3cccc(S(=O)(=O)N4CCOCC4)c3)C2=O)ccc1-c1cn[nH]c1 (racemic) [Example 264, 1-(6-methoxy-5-(1H-pyrazol-4-yl)pyridin-2-yl)-3-((3-(morpholinosulfonyl)phenyl)amino)pyrrolidin-2-one]
10 to 100 | COc1nc(N2CCC(N3CCC(CO)CC3)C2=O)ccc1-c1cn[nH]c1 (racemic) [Example 289, 3-(4-(hydroxymethyl)piperidin-1-yl)-1-(6-methoxy-5-(1H-pyrazol-4-yl)pyridin-2-yl)pyrrolidin-2-one]
10 to 100 | COc1cc(NC2CCN(c3cc(F)c(-c4cn[nH]c4)cc3F)C2=O)ccc1F (single isomer, unassigned) [Example 349, 1-(2,5-difluoro-4-(1H-pyrazol-4-yl)phenyl)-3-((4-fluoro-3-methoxyphenyl)amino)pyrrolidin-2-one]
< 10 | COc1c(F)cccc1NC1CCN(c2ccc(-c3cn[nH]c3)cc2)C1=O (single isomer, unassigned) [Example 15, 1-(4-(1H-pyrazol-4-yl)phenyl)-3-((3-fluoro-2-methoxyphenyl)amino)pyrrolidin-2-one]
< 10 | COc1cccc(NC2CCN(c3ccc(-c4cn[nH]c4)c(OC)c3)C2=O)c1 (single isomer, unassigned) [Example 74, 1-(3-methoxy-4-(1H-pyrazol-4-yl)phenyl)-3-((3-methoxyphenyl)amino)pyrrolidin-2-one]
100 to 2200 | COc1cc(F)ccc1NC1CCN(c2ccc(-c3cn[nH]c3)c(OC)c2)C1=O (single isomer, unassigned) [Example 143, 3-((4-fluoro-2-methoxyphenyl)amino)-1-(3-methoxy-4-(1H-pyrazol-4-yl)phenyl) pyrrolidin-2-one]
< 10 | COc1cc(N2CCC(Nc3cc(F)cc(F)c3)C2=O)ccc1-c1cn[nH]c1 (single isomer, unassigned) [Example 146, 3-((3,5-difluorophenyl)amino)-1-(3-methoxy-4-(1H-pyrazol-4-yl)phenyl) pyrrolidin-2-one]
100 to 2200 | COc1cccc(OC2CCN(c3ccc(-c4ccc5[nH]ncc5c4)c(OC)n3)C2=O)c1 (single isomer, unassigned) [Example 123, 1-(5-(1H-indazol-5-yl)-6-methoxypyridin-2-yl)-3-(3-methoxyphenoxy)pyrrolidin-2-one]
100 to 2200 | CN(C)c1cccc(N[C@@H]2CCN(c3ccc(-c4cn[nH]c4)cc3)C2=O)c1 [Example 390, (R)-1-(4-(1H-pyrazol-4-yl)phenyl)-3-((3-(dimethylamino)phenyl)amino)pyrrolidin-2-one]
< 10 | O=C1C(Nc2cccc(OCC3CC3)c2)CCN1c1ccc(-c2cn[nH]c2)c(F)c1 (single isomer, unassigned) [Example 361, 3-((3-(cyclopropylmethoxy)phenyl)amino)-1-(3-fluoro-4-(1H-pyrazol-4-yl)phenyl)pyrrolidin-2-one]

IC50 [nM] | Structure (SMILES)
100 to 2200 | COc1nc(N2CCC(N3CCc4ccccc4C3)C2=O)ccc1-c1cn[nH]c1 (racemic) [Example 277, 3-(3,4-dihydroisoquinolin-2(1H)-yl)-1-(6-methoxy-5-(1H-pyrazol-4-yl)pyridin-2-yl)pyrrolidin-2-one]
< 10 | COc1cc(F)cc(OC2CCN(c3ccc(-c4cn[nH]c4)c(OC)n3)C2=O)c1 (single isomer, unassigned) [Example 173, 3-(3-fluoro-5-methoxyphenoxy)-1-(6-methoxy-5-(1H-pyrazol-4-yl)pyridin-2-yl)pyrrolidin-2-one]
< 10 | CCOc1cc(N2CCC(Nc3cccc(OC)c3)C2=O)ccc1-c1cn[nH]c1 (single isomer, unassigned) [Example 34, 1-(3-ethoxy-4-(1H-pyrazol-4-yl)phenyl)-3-((3-methoxyphenyl)amino)pyrrolidin-2-one]
< 10 | CCc1nc(N2CCC(Nc3cc(F)cc(OC)c3)C2=O)ccc1-c1cn[nH]c1 (single isomer, unassigned) [Example 316, 1-(6-ethyl-5-(1H-pyrazol-4-yl)pyridin-2-yl)-3-((3-fluoro-5-methoxyphenyl)amino) pyrrolidin-2-one]
< 10 | COc1cc(NC2CCN(c3ccc(-c4cn[nH]c4)c(OC)c3)C2=O)ccc1F (single isomer, unassigned) [Example 155, 3-((4-fluoro-3-methoxyphenyl)amino)-1-(3-methoxy-4-(1H-pyrazol-4-yl)phenyl) pyrrolidin-2-one]
< 10 | COc1cccc(NC2CCN(c3ccc(-c4cn[nH]c4)cc3)C2=O)c1 (single isomer, unassigned) [Example 28, 1-(4-(1H-pyrazol-4-yl)phenyl)-3-((3-methoxyphenyl)amino)pyrrolidin-2-one]
< 10 | COc1cccc(C2CCN(c3ccc(-c4cn[nH]c4)cc3)C2=O)c1 (centres unmarked) [Example 103, 1-(4-(1H-pyrazol-4-yl)phenyl)-3-(3-methoxyphenyl)pyrrolidin-2-one]
100 to 2200 | CCc1cc(N2CCC(Nc3cccc(OC)c3)C2=O)ncc1-c1cn[nH]c1 (single isomer, unassigned) [Example 203, 1-(4-ethyl-5-(1H-pyrazol-4-yl)pyridin-2-yl)-3-((3-methoxyphenyl)amino) pyrrolidin-2-one]
10 to 100 | COc1cc(F)cc(NC2CCN(c3ccc(-c4cn[nH]c4)c(C(F)F)c3)C2=O)c1 (single isomer, unassigned) [Example 178, 1-(3-(difluoromethyl)-4-(1H-pyrazol-4-yl)phenyl)-3-((3-fluoro-5-methoxyphenyl)amino)pyrrolidin-2-one]
< 10 | COc1cc(F)cc(NC2CCN(c3ccc(-c4cn[nH]c4)c(OC)c3)C2=O)c1 (single isomer, unassigned) [Example 137, 3-((3-fluoro-5-methoxyphenyl)amino)-1-(3-methoxy-4-(1H-pyrazol-4-yl)phenyl) pyrrolidin-2-one]
10 to 100 | COc1ccc(F)c(NC2CCN(c3ccc(-c4cn[nH]c4)cc3)C2=O)c1 (single isomer, unassigned) [Example 239, 1-(4-(1H-pyrazol-4-yl)phenyl)-3-((2-fluoro-5-methoxyphenyl)amino)pyrrolidin-2-one]
10 to 100 | COc1cc(N2CCC(Nc3c(F)cccc3OC)C2=O)ccc1-c1cn[nH]c1 (single isomer, unassigned) [Example 135, 3-((2-fluoro-6-methoxyphenyl)amino)-1-(3-methoxy-4-(1H-pyrazol-4-yl)phenyl) pyrrolidin-2-one]
10 to 100 | COc1cc(NC2CCN(c3ccc(-c4cn[nH]c4)cc3)C2=O)ccc1F (single isomer, unassigned) [Example 17, 1-(4-(1H-pyrazol-4-yl)phenyl)-3-((4-fluoro-3-methoxyphenyl)amino)pyrrolidin-2-one]
10 to 100 | COc1nc(N2CCC(Nc3ccc4c(c3)OCCO4)C2=O)ccc1-c1cn[nH]c1 (racemic) [Example 256, 3-((2,3-dihydrobenzo[b][l,4]dioxin-6-yl)amino)-1-(6-methoxy-5-(1H-pyrazol-4-yl)pyridin-2-yl)pyrrolidin-2-one]
100 to 2200 | COc1cc(F)cc(NC2CCN(c3ncc(-c4cn[nH]c4)cc3F)C2=O)c1 (single isomer, unassigned) [Example 359, 1-(3-fluoro-5-(1H-pyrazol-4-yl)pyridin-2-yl)-3-((3-fluoro-5-methoxyphenyl)amino) pyrrolidin-2-one]
10 to 100 | CNc1nc(N2CCC(Nc3cc(F)cc(OC)c3)C2=O)ccc1-c1cn[nH]c1 (single isomer, unassigned) [Example 251, 3-((3-fluoro-5-methoxyphenyl)amino)-1-(6-(methylamino)-5-(1H-pyrazol-4-yl)pyridin-2-yl)pyrrolidin-2-one]
10 to 100 | Cc1cccc(NC2CCN(c3ccc(-c4cn[nH]c4)cc3)C2=O)c1 (centres unmarked) [Example 2, 1-(4-(1H-pyrazol-4-yl)phenyl)-3-(m-tolylamino)pyrrolidin-2-one]
